Values of other authors in patent US6638954B2, “Δ2-1,2,3-TRIAZOLINE ANTICONVULSANTS AND THEIR ACTIVE METABOLITE ANALOGUES, THE AMINOALKYLPYRIDINES, ARE EXCITATORY AMINO ACID ANTAGONISTS AND ANTIISCHEMIC AGENTS, USEFUL IN THE TREATMENT OF CEREBRAL ISCHEMIA RESULTING FROM STROKE” (K and K Biosciences, Inc., priority 2000, dated 2003).

How the values were obtained:
[1] = test system: N-methyl D-aspartate (NMDA)-induced seizures; conditions: mouse
amygdala-kindled rats = conditions: non-sedative, non-neurotoxic doses
entorhinal-kindled rats = conditions: non-sedative, non-neurotoxic doses

1-(p-Chlorophenyl)-5-(4-pyridyl)-Δ^2-1,2,3-triazoline [Table IV (2)]
Protection against NMDA-induced seizures/convulsions [1]: complete protection | ED50, protection against after-discharge seizures and generalized convulsions (amygdala-kindled rats): 215 ± 61 mg/kg | ED50, protection against after-discharge seizures and generalized convulsions (entorhinal-kindled rats): 423 ± 45 mg/kg
